Experimental data taken from patent US7659394B2 (Pfizer Inc, priority 2004, dated 2010).

How the values were obtained:
[1] = biological target: T1, human norepinephrine transporter (Homo sapiens, UniProt P23975); experiment: hNET receptor binding ([125I]-RTI-55 radioligand binding); details: membranes of HEK-293 cells transfected with human norepinephrine transporter, IC50 converted to Ki by Cheng-Prusoff, read-out: hNET (Ki)
T1 construct: host or cells: HEK-293
Outline: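 Membranes from HEK-293 cells transfected with human NET. Nonspecific binding defined with 10 μM desipramine, duplicates. IC50 by nonlinear regression, converted to Ki with Cheng-Prusoff.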

[2] = biological target: T2, human seritonin transporter (Homo sapiens, UniProt P31645); experiment: hSERT receptor binding ([125I]-RTI-55 radioligand binding); details: membranes of HEK-293 cells transfected with human seritonin transporter, IC50 converted to Ki by Cheng-Prusoff, read-out: SERT (Ki)
T2 construct: host or cells: HEK-293
T2 sequence (P31645 whole entry): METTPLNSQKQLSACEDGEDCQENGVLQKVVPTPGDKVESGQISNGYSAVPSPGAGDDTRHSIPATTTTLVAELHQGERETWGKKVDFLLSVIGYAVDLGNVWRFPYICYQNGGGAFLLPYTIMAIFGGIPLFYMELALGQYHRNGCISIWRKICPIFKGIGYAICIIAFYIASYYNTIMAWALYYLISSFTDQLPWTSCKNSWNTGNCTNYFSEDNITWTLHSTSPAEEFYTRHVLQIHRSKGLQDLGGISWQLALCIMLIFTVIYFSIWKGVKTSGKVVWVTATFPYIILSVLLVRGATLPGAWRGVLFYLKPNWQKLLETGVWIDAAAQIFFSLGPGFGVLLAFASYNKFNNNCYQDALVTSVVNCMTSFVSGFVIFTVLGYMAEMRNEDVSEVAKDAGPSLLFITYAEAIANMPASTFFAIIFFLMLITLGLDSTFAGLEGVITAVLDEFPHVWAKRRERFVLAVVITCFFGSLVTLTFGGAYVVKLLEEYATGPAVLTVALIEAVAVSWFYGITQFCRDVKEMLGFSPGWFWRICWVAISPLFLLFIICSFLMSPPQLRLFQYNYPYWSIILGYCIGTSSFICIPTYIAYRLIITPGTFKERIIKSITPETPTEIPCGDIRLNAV

T1 sequence (P23975 whole entry): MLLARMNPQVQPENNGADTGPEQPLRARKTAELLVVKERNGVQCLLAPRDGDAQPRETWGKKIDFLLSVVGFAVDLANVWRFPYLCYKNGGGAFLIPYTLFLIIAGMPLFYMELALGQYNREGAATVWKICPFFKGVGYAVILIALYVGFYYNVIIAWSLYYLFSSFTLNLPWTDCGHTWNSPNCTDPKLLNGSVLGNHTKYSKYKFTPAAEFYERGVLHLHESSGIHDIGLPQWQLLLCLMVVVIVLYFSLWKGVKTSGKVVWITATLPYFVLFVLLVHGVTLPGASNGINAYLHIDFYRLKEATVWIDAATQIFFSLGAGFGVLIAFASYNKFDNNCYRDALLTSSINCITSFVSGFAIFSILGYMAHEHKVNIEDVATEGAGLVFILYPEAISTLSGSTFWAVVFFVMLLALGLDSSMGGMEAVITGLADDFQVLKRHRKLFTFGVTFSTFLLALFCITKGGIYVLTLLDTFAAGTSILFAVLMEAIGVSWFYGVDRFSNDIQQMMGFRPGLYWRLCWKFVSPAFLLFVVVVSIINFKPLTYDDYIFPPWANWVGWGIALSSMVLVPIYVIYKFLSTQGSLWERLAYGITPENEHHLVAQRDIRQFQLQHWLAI

Row | Ki [1] | melting point | Ki [2] | SMILES
1 | 5.2 nM | 156 to 158 °C | 6260 nM | Oc1ccccc1O[C@@H](c1ccccc1)[C@@H]1CNCCO1 [Example 50, (2S,3S)-2-(Morpholin-2-yl-phenyl-methoxy)-phenol]
2 | 8 nM |  | 1350 nM | COc1ncccc1O[C@@H](c1ccccc1)[C@@H]1CNCCO1 [Example 166, (2S)-2-[(S)-[(2-methoxypyridin-3-yl)oxy](phenyl)methyl]morpholine]
3 | 8 nM |  | 2550 nM | COc1ccc(F)cc1OC(c1ccccc1)[C@@H]1CNCCO1 (stereo partly drawn) [Example 167, (2S)-2-[(5-fluoro-2-methoxyphenoxy)(phenyl)methyl]morpholine]
4 | 5 nM |  | 791 nM | COc1c(F)cccc1OC(c1ccccc1)[C@@H]1CNCCO1 (stereo partly drawn) [Example 168, (2S)-2-[(3-fluoro-2-methoxyphenoxy)(phenyl)methyl]morpholine]
5 | 6 nM |  | 2980 nM | CCOc1ccc(F)cc1OC(c1ccccc1)[C@@H]1CNCCO1 (stereo partly drawn) [Example 169, (2S)-2-[(2-ethoxy-5-fluorophenoxy)(phenyl)methyl]morpholine]
6 | 11 nM |  | 4930 nM | CCOc1c(F)cccc1OC(c1ccccc1)[C@@H]1CNCCO1 (stereo partly drawn) [Example 170, (2S)-2-[(2-ethoxy-3-fluorophenoxy)(phenyl)methyl]morpholine]
7 | 20 nM |  | 1040 nM | CCCOc1cccc(F)c1O[C@@H](c1ccccc1)[C@@H]1CNCCO1 [Example 171, (2S)-2-[(S)-(2-fluoro-6-propoxyphenoxy)(phenyl)methyl]morpholine]
8 | 12 nM |  | ≥ 10000 nM | Cc1coc(C(Oc2c(F)cccc2F)[C@@H]2CNCCO2)n1 (stereo partly drawn) [Example 173, (2S)-2-[(2,6-difluorophenoxy)(4-methyl-1,3-oxazol-2-yl)methyl]morpholine]
9 | 18 nM |  | 7520 nM | Cc1coc(C(Oc2ccccc2OC(F)(F)F)[C@@H]2CNCCO2)n1 (stereo partly drawn) [Example 174, (2S)-2-{(4-methyl-1,3-oxazol-2-yl)[2-(trifluoromethoxy)phenoxy]methyl}morpholine]
10 | 15 nM |  | 7640 nM | Fc1cccc(F)c1OC(c1nccs1)[C@@H]1CNCCO1 (stereo partly drawn) [Example 175, (2S)-2-[(2,6-difluorophenoxy)(1,3-thiazol-2-yl)methyl]morpholine]
11 | 5 nM |  | 3420 nM | CCCC[C@H](Oc1cccnc1OCC)[C@@H]1CNCCO1 [Example 176, (2S)-2-{(1S)-1-[(2-ethoxypyridin-3-yl)oxy]pentyl}morpholine]
12 | 7 nM |  | 1960 nM | Cc1coc(C(Oc2ccccc2Br)[C@@H]2CNCCO2)n1 (stereo partly drawn) [Example 177, (2S)-2-[(2-bromophenoxy)(4-methyl-1,3-oxazol-2-yl)methyl]morpholine]
13 | 3 nM |  | 61 nM | Cc1cccc(F)c1O[C@@H](c1ccccc1)[C@@H]1CNCCO1 [Example 178, (2S)-2-[(S)-(2-fluoro-6-methylphenoxy)(phenyl)methyl]morpholine]
14 | 18 nM |  | 2550 nM | CC(C)c1ncccc1O[C@@H](c1ccccc1)[C@@H]1CNCCO1 [Example 179, (2S)-2-[(S)-[(2-isopropylpyridin-3-yl)oxy](phenyl)methyl]morpholine]
15 | 9 nM |  | 8230 nM | CCOc1ccccc1OC(c1nccs1)[C@@H]1CNCCO1 (stereo partly drawn) [Example 180, (2S)-2-[(2-ethoxyphenoxy)(1,3-thiazol-2-yl)methyl]morpholine]
16 | 225 nM |  | 4900 nM | CCOc1ccccc1O[C@H](c1ccccn1)[C@H]1CNCCO1 [Example 181, (2R)-2-[(R)-(2-ethoxyphenoxy)(pyridin-2-yl)methyl]morpholine]

Row | Ki [1] | melting point | Ki [2] | SMILES
17 | 31 nM |  | 7080 nM | CC(C)Cc1ncccc1O[C@@H](c1ccccc1)[C@@H]1CNCCO1 [Example 182, (2S)-2-[(S)-[(2-isobutylpyridin-3-yl)oxy](phenyl)methyl]morpholine]
18 | 7 nM |  | 5340 nM | CC(C)c1cccc(F)c1O[C@@H](c1ccccc1)[C@@H]1CNCCO1 [Example 183, (2S)-2-[(S)-(2-fluoro-6-isopropylphenoxy)(phenyl)methyl]morpholine]
19 | 8 nM |  | 201 nM | COc1cccc([C@H](Oc2c(F)cccc2Br)[C@@H]2CNCCO2)n1 [Example 185, (2S)-2-[(S)-(2-bromo-6-fluorophenoxy)(6-methoxypyridin-2-yl)methyl]morpholine]
20 | 8 nM |  | 1260 nM | Fc1cccc(Br)c1O[C@@H](c1ccccn1)[C@@H]1CNCCO1 [Example 186, (2S)-2-[(S)-(2-bromo-6-fluorophenoxy)(pyridin-2-yl)methyl]morpholine]
21 | 15 nM |  | 224 nM | COc1cccc([C@H](Oc2ccccc2Br)[C@@H]2CNCCO2)n1 [Example 187, (2S)-2-[(S)-(2-bromophenoxy)(6-methoxypyridin-2-yl)methyl]morpholine]
22 | 14 nM |  | 2210 nM | COc1cccc([C@H](Oc2c(F)cccc2OC)[C@@H]2CNCCO2)n1 [Example 188, (2S)-2-[(S)-(2-fluoro-6-methoxyphenoxy) (6-methoxypyridin-2-yl)methyl]morpholine]
23 | 147 nM |  | 5220 nM | CCOc1ncccc1OC(C(C)C)[C@@H]1CNCCO1 (stereo partly drawn) [Example 189, (2S)-2-{1-[(2-ethoxypyridin-3-yl)oxy]-2-methylpropyl}morpholine]
24 | 6 nM |  | 4340 nM | Cc1coc(C(Oc2ccccc2C2CC2)[C@@H]2CNCCO2)n1 (stereo partly drawn) [Example 190, (2S)-2-[(2-cyclopropylphenoxy)(4-methyl-1,3-oxazol-2-yl)methyl]morpholine]
25 | 6 nM |  | 5830 nM | CCC[C@H](Oc1cccnc1OCC)[C@@H]1CNCCO1 [Example 191, (2S)-2-{(1S)-1-[(2-ethoxypyridin-3-yl)oxy]butyl}morpholine]
26 | 38 nM |  | 1880 nM | c1ccc([C@H](Oc2cccnc2OCC2CC2)[C@@H]2CNCCO2)cc1 [Example 192, (2S)-2-[(S)-{[2-(cyclopropylmethoxy)pyridin-3-yl]oxy}(phenyl)methyl]morpholine]
27 | 3 nM |  | 707 nM | Fc1cccc(C(F)(F)F)c1O[C@@H](c1ccccc1)[C@@H]1CNCCO1 [Example 193, (2S)-2-[(S)-[2-fluoro-6-(trifluoromethyl)phenoxy](phenyl)methyl]morpholine]
28 | 9 nM |  | 2560 nM | Fc1cccc(OC(F)(F)F)c1O[C@@H](c1ccccc1)[C@@H]1CNCCO1 [Example 194, (2S)-2-[(S)-[2-fluoro-6-(trifluoromethoxy)phenoxy](phenyl)methyl]morpholine]
29 | 18 nM |  | 811 nM | CCOc1ncccc1O[C@@H](Cc1ccccc1)[C@@H]1CNCCO1 [Example 197, (2S)-2-{(1S)-1-[(2-ethoxypyridin-3-yl)oxy]-2-phenylethyl}morpholine]
30 | 30 nM |  | 62 nM | CSc1cc(F)ccc1O[C@@H](c1ccccc1)[C@@H]1CNCCO1 [Example 198, (2S)-2-[(S)-[4-fluoro-2-(methylthio)phenoxy](phenyl)methyl]morpholine]
31 | 8 nM |  | 2940 nM | COc1cccc([C@H](Oc2c(F)cccc2F)[C@@H]2CNCCO2)n1 [Example 199, (2S)-2-[(S)-(2,6-difluorophenoxy)(6-methoxypyridin-2-yl)methyl]morpholine]
32 | 9550 nM |  | ≥ 10000 nM | c1cnc(OC[C@H]2CNCCO2)c(OC[C@H]2CNCCO2)n1 [Example 200, (2R,2′R)-2,2′-[pyrazine-2,3-diylbis(oxymethylene)]dimorpholine]
